Data taken from patent publication US20080188469A1, “VACCINATION” (Glaxo Group Limited, priority 2002, published 2008).

Tested on: antigen specific cytokine producing cells in splenocytes
Assay: Imiquimod given with particle-mediated DNA vaccination (pVAC1.ova.cyt) of mice; cytokine producing splenocytes by ELISPOT
Type: in vivo, C57B1/6 mice
Conditions: imiquimod 30 mg/kg, single subcutaneous injection at the immunisation site, immediately following vaccination
Method: To examine whether the timing of imiquimod administration could affect the numbers of antigen specific cytokine producing cells in splenocytes pVAC1.ova.cyt (prepared according to example 1) was administered by particle mediated gene transfer (0.05 μg/cartridge) into the skin of mice.
If given, immediately following vaccination imiquimod (prepared as a suspension in vehicle which comprised 0.3% (w/v) methylcellulose and 0.1% (v/v) Tween in sterile water) was administered by a single subcutaneous injection (0.05 ml/10 g body weight formulated to provide a dose of 30 mg/kg)) at the immunisation site. Plasmid and imiquimod controls were empty vector (pVAC1) and vehicle, respectively.
All mice received pVAC1. ova.cyt or empty vehicle pVAC1 at day 0 and week 4. One group of mice received imiquimod at day 0 only (Im prime), a second group of mice received imiquimod at week 4 only (Im boost) and another group received imiquimod at day 0 and week 4 (Im pr+boost).
At day 12 spl enocytes were collected and IFN-γ and IL-2 producing cells were measured by ELISPOT.

Compound: CC(C)Cn1cnc2c(N)nc3ccccc3c21 [Imiquimod, imiquimod]
- Magnitude of the cytotoxic T cell response to a nucleic acid vaccine: Increases the Magnitude of the Cytotoxic T Cell Response
